Experimental data reported in paper PMC8224453, “A New PqsR Inverse Agonist Potentiates Tobramycin Efficacy to Eradicate Pseudomonas aeruginosa Biofilms” (Advanced Science, 2021).
Values joined by “and” are separate entries in the source; they are usually repeats but may differ in a detail not shown here. Equal entries are not always repeated. Where two headings read alike, the source gives them in different places.

Legend:
[1] = In vivo pharmacokinetics after intratracheal instillation; set-up: species or system mouse; details: for Kp / Cmax / AUC(0-t) / MRT / Tmax / half-life / CL/F / Vd/F / AUC: male, CD1, mouse, inhaled or intranasal; for Kp: BALF and plasma, read-out: AUC ratio BALF/Plasma; for Vd/F: read-out: Vz/F_obs
Experimental: 6.2. PK Sample Preparation and Analysis
Groups of male CD1 mice (25-30 g, Charles River UK) were housed in groups of up to 6 and maintained under a 12 h light/dark cycle with free access to food and water. Temperature and humidity were controlled according to U.K. HO regulations. On the day of the study, mice were briefly anaesthetized with isoflurane before suspending the mouse by its upper incisors on a board held at an angle of approx. 45 degrees. Mice were then dosed intratracheally with the compound (4 or Tob) at the designated does formulated in ethanol/tyloxapol/glycerol/phosphate-buffered saline (PBS) [10:1:5:84] in a 1 mL/kg dosing volume up to a maximum of 30 µL per mouse. A laryngoscope was used to facilitate dosing.
Animals were allowed to recover before replacing into their home cages. […]
Blood samples were placed in tubes on ice containing EDTA anticoagulant. After gentle mixing, samples were centrifuged (10,000 rpm x 3 min) and two 50 μL aliquots taken into fresh tubes that were immediately frozen on dry ice. Following blood sample collection, tracheas were exposed and a small incision made. An 18 Gauge plastic tube was then inserted through the incision into the trachea and tied in place. Aliquots of 0.8 mL of sterile saline were then infused into and then withdrawn from the lungs and the collected bronchoalveolar lavage (BAL) sample placed into a tube. This process was repeated two more times, and the samples from each mouse pooled. The resulting samples were weighed and mixed, before a 1 mL aliquot was taken for analysis and frozen on dry ice.
Immediately after collecting the final BALF sample, lung samples were excised and excess tissue removed, before rinsing in saline, blotting and weighing. Samples were then snap frozen by immersion in liquid nitrogen. All samples were stored at -20 °C until sent for […]
All PK plasma samples were analyzed via HPLC-MS/MS using an Agilent 1290 Infinity II HPLC system coupled to an AB Sciex QTrap 6500plus mass spectrometer. First, a calibration curve was prepared by spiking different concentrations of compound 4 or Tob (Fa. Sigma) into plasma, homogenized lung from CD-1 mice or 0.9% sodium chloride solution as matrix for broncheoalveolar lavage fluid (BALF). The lower limits of quantification are indicated in Table S5. Caffeine was used as internal standard. In addition, quality control samples (QCs) were prepared for 4 and Tob in plasma, homogenized lung and 0.9% sodium chloride […]
The following extraction procedure was used for 4: plasma: 7.5 µL of a plasma sample (calibration samples, QCs or PK samples) was extracted with 37.5 µL of acetonitrile containing 12.5 ng/mL caffeine as internal standard for 10 min at 2000 rpm on an Eppendorf MixMate® vortex mixer. Lung: homogenized samples were diluted to 50 mg/mL lung tissue in 0.9% sodium chloride solution. A 50 µL of a lung sample (calibration samples, QCs or PK samples) was extracted with 15 µL water containing 10% formic acid and 50 µL of acetonitrile containing 12.5 ng/mL caffeine as internal standard for 10 min at 2.000 rpm on an Eppendorf MixMate® vortex mixer. BALF: 200 µL of methanol were added to 100 µL of a BALF sample (calibration samples, QCs or PK samples). Samples were concentrated in an Eppendorf concentrator until dryness at 30 °C. A 30 µL of water containing 10% formic acid

PqsR = biological target: T1, PqsR (Pseudomonas aeruginosa, UniProt Q9I4X0); assay: PqsR β-galactosidase reporter-gene assay in E. coli DH5α; assay type: cell-based
T1 construct: which expresses PqsR and the β-galactosidase LacZ under the control of the pqsA promoter; expressed in transfected cells; host or cells: E. coli DH5α carrying plasmid pEAL08-2
T1 sequence (Q9I4X0 whole entry): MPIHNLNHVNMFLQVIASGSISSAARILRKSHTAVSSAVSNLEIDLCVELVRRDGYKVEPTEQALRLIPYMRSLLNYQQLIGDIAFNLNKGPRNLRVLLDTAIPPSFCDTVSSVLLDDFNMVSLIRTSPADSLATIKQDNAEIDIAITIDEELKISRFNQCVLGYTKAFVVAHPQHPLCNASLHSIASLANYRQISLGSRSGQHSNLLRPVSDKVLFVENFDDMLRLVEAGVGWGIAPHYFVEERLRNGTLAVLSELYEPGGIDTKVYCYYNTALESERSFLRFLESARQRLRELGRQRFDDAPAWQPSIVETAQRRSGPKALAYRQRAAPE
Experimental: 3. Primary Activity Assays
The inverse agonistic/antagonistic activity of potential PqsR ligands was evaluated in a β-galactosidase reporter gene assay in E. coli as previously described.[3] In short, test compounds were co-incubated with E. coli DH5α cells containing the plasmid pEAL08-2,[4] which expresses PqsR and the β-galactosidase LacZ under the control of the pqsA promoter.
The inverse agonistic/antagonistic activity of compounds was measured in the presence of 50 nM PQS. After incubation, galactosidase activity was quantified photometrically and expressed as ratio of controls. The given IC50 values represent the mean of at least two independent experiments using at least eight different concentrations of test compound with n = 4. Non-linear regression analysis was performed using OriginPro 2020. […]

[2] = BALF, 0.5 mg kg^−1, mice, intratracheal, BALF, read-out: Cmax BALF
[3] = BALF, mice, intratracheal, Figure 3B, read-out: BALF: AUC0-t
[4] = ELF (calculated from BALF), 0.5 mg kg^−1, mice, intratracheal, ELF calculated from BALF, read-out: Cmax ELF
[5] = 0.5 mg kg^−1, mice, intratracheal, BALF, read-out: AUC0-t BALF
[6] = 0.5 mg kg^−1, mice, intratracheal, BALF, read-out: MRT BALF
[7] = 0.5 mg kg^−1, mice, intratracheal, BALF, read-out: Tmax BALF
[8] = 0.5 mg kg^−1, mice, intratracheal, ELF calculated from BALF, read-out: AUC0-t ELF
[9] = 0.5 mg kg^−1, mice, intratracheal, ELF calculated from BALF, read-out: MRT ELF
[10] = 0.5 mg kg^−1, mice, intratracheal, ELF calculated from BALF, read-out: Tmax ELF
[11] = 0.5 mg kg^−1, mice, intratracheal, ELF calculated from BALF, read-out: t1/2 ELF (converted)
[12] = 0.5 mg kg^−1, mice, intratracheal, lung tissue, read-out: MRT lung
[13] = 0.5 mg kg^−1, mice, intratracheal, lung tissue, read-out: Tmax lung
[14] = 0.5 mg kg^−1, mice, intratracheal, lung tissue, read-out: t1/2 lung (converted)
[15] = 0.5 mg kg^−1, mice, intratracheal, plasma
[16] = 0.5 mg kg^−1, mice, intratracheal, plasma, read-out: AUC0-t plasma
[17] = 0.5 mg kg^−1, mice, intratracheal, plasma, read-out: MRT plasma
[18] = 0.5 mg kg^−1, mice, intratracheal, plasma, read-out: Tmax plasma
[19] = mice, intratracheal (QSI 4 0.5 mg kg^−1), plasma, read-out: t1/2 plasma (converted)
[20] = mice, intratracheal, BALF, read-out: t1/2 BALF (converted)
[21] = plasma, 0.5 mg kg^−1, mice, intratracheal, plasma, read-out: Cmax plasma
[22] = plasma, mice, intratracheal, Figure 3B, read-out: Plasma: AUC0-t

| Compound | Kp ([1]; mice, intratracheal) | Cmax [1, 2] | AUC(0-t) [1, 3] | Cmax [1, 4] | AUC(0-t) [1, 5] | MRT [1, 6] | Tmax [1, 7] | AUC(0-t) [1, 8] | MRT [1, 9] | Tmax [1, 10] | half-life [1, 11] | MRT [1, 12] | Tmax [1, 13] | half-life [1, 14] | CL/F [1, 15] | AUC(0-t) [1, 16] | MRT [1, 17] | Tmax [1, 18] | Vd/F [1, 15] | half-life [1, 19] | further results |
| --- | --- | --- | --- | --- | --- | --- | --- | --- | --- | --- | --- | --- | --- | --- | --- | --- | --- | --- | --- | --- | --- |
| FC(F)(F)c1cc(NCc2cn(-c3ccc(Oc4ccccc4)cc3)nn2)ccn1 [Compound 4] | 86.9 | 3770 ng/mL and 9.2 µM | 4840 ± 2180 ng·h/mL | 1290 ng/mL and 3.1 µM | 4840 ng·h/mL and 11.8 µM·h | 94.2 ± 6 min | 30 min | 3100 ng·h/mL and 7.5 µM·h | 96.6 ± 66 min | 100 ± 120 min | 33 ± 18 min | 76.2 ± 24 min | 30 min | 64.8 ± 30 min | 157 ± 55.5 mL/min/kg | 55.8 ng·h/mL and 0.135 µM·h | 72 ± 6 min | 30 min | 10.5 ± 1.2 L/kg | 51.6 ± 24 min | Cmax ([1]; BALF, 0.5 mg/kg, mice, intratracheal 0.5 mg kg^−1, BALF, read-out: C max in BALF): 3770 ± 2660 ng/mL; AUC ([1]; mice, intratracheal 0.5 mg kg^−1, BALF, read-out: AUC0‐t BALF): 4840 ± 2180 ng·h/mL; AUC ([1]; mice, intratracheal 0.5 mg kg^−1, ELF, read-out: AUC0‐t ELF): 3100 ± 330 ng·h/mL; AUC ([1]; mice, intratracheal 0.5 mg kg^−1, plasma, read-out: AUC0‐t plasma): 55.8 ± 21.3 ng·h/mL; half-life [1, 20]: 43.2 ± 30 min; Cmax [1, 21]: 62.6 ng/mL and 151 nM; Cmax ([1]; plasma, 0.5 mg/kg, mice, intratracheal 0.5 mg kg^−1, plasma, read-out: plasma C max): 62.6 ± 45.7 ng/mL; AUC(0-t) [1, 22]: 55.8 ± 21.3 ng·h/mL; IC50 (PqsR): 11 nM |
| NC[C@H]1O[C@H](O[C@H]2[C@H](O)[C@@H](O[C@H]3O[C@H](CO)[C@@H](O)[C@H](N)[C@H]3O)[C@H](N)C[C@@H]2N)[C@H](N)C[C@@H]1O [Tobramycin, tobramycin] | 3.2 | 215 ng/mL and 460 nM | 268 ± 27 ng·h/mL | 38.8 ng/mL and 83 nM | 268 ng·h/mL and 0.57 µM·h | 84 ± 6 min | 30 min | 57.5 ng·h/mL and 0.12 µM·h | 90 ± 12 min | 30 min | 33.6 ± 12 min | 116 min | 30 min | 67.8 min | 45.3 ± 26.6 mL/min/kg | 83.2 ng·h/mL and 0.178 µM·h | 87 ± 72 min | 30 min | 2.25 ± 1.6 L/kg | 45.6 ± 48 min | half-life [1, 20]: 49.2 ± 6 min; Cmax [1, 21]: 89.5 ng/mL and 191 nM; AUC(0-t) [1, 22]: 83.2 ± 35.3 ng·h/mL; Cmax BALF ([1]; mice, intratracheal, BALF): 215.4 ± 50 ng/mL |
| COc1ccc(-n2cc(CNc3ccnc(C(F)(F)F)c3)nn2)cc1Cl [Compound 17] | – | – | – | – | – | – | – | – | – | – | – | – | – | – | – | – | – | – | – | – | IC50 (PqsR): 8 nM; fold higher activity than monosubstituted 11 (PqsR; PqsR reporter-gene IC50, versus 11): 10 fold |
